Test results reported in patent US5861476A, “Peptides and compounds that bind to the IL-1 receptor” (Affymax Technologies N.V., priority 1995, dated 1999).
Where a SMILES comes first, the peptide text is derived from it. Where no end group is shown, it is not given here. [ ]: non-standard residue; d: D form. Aze = O=C(O)[C@@H]1CCN1

What follows are compounds tested against T1, IL-1RtI (Homo sapiens, UniProt P14778) (assay: Inhibition of 125I-IL-1α binding to IL-1RtI (Example 3)). Details: not given.
T1 construct: made in house; host or cells: recombinant host cells (one form soluble from baculovirus transformed host cells; another PIG-tailed and cleaved from the cell surface)
T1 sequence (P14778 18-336): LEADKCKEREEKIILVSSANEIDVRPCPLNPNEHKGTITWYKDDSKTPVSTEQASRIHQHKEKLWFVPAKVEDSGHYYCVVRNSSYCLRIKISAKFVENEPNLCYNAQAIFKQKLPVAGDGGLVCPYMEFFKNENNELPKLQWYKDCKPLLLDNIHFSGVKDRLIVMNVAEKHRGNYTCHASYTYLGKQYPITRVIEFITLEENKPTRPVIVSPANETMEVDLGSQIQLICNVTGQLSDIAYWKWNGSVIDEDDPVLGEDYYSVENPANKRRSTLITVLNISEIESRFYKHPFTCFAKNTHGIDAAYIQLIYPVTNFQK
Method: This example provides the results of experiments conducted to determine an approximate IC50 for certain peptides of the invention. IC50 as used herein refers to the concentration of a compound which will inhibit 50% of the binding between a receptor and its ligand, e.g. IL-1RtI and IL-1. Stock solutions of each peptide were prepared. The appropriate amount of the peptide was dissolved in DMSO, and then nineteen volumes of binding buffer (RPMI 1640, 1% BSA, 20 mM HEPES, pH 7.2-7.3, and 0.1% sodium azide) were added to yield a 1 mM peptide, 5% DMSO stock solution.
One assay utilized a truncated IL-1RtI which had been immobilized on 96-well plates with an appropriate antibody, typically a non-blocking high affinity antibody. In other assays, cells expressing "full-length" IL-1RtI were used with results that yielded IC50 values about 5 to 10 fold lower than those determined using the truncated receptor. The cells were seeded onto Falcon 3072 96-well plates at about 10^5 cells per well, and the plates were incubated overnight at 37° C. in media containing serum. The following morning, the cells were checked to ensure that the cells were confluent and adhered to the bottom of the wells.
According to either assay protocol, the plates were then washed three times with binding buffer, and then 50 μl of binding buffer and 25 μl of a peptide solution (either the stock solution or a dilution thereof; each stock was subjected to five three fold dilutions) were added to each well. Then 25 μl of binding buffer containing ^125 I-IL-1α (final concentration of 90 pM) were added to each well to begin the assay. Each assay was carried out in duplicate. The plates were then incubated for two hours at 4° C. For peptides having particularly high affinities, the assay was run in 24 well plates allowing for higher levels of ligand (possible total volume of 2.5 ml instead of 100 μl in the 96 well plate), thereby minimizing the potential for ligand depletion.
After the two hour incubation, the wells were rinsed three times with ice cold PBS (a semi-automated cell harvesting device was used to conduct the rinse). The receptors or cells were then detached from the plates by adding 100 μl of 0.1N NaOH to each well and incubating the plates at room temperature for 20 minutes. After the 20 minute incubation, about 75 μl of the suspension was counted on a gamma counter, and the IC50 for each peptide was determined using computer assistance and the results of the gamma counting.

| Compound | IC50 [µM] |
| --- | --- |
| C[C@H](NC(=O)[C@H](CC(N)=O)NC(=O)[C@H](CO)NC(=O)[C@H](CCC(=O)O)NC(=O)[C@H](CCC(=O)O)NC(=O)[C@H](Cc1c[nH]c2ccccc12)NC(=O)[C@@H](NC(=O)[C@@H](N)Cc1ccccc1)[C@@H](C)O)C(=O)N[C@@H](Cc1ccc(O)cc1)C(=O)N[C@@H](Cc1ccc(O)cc1)C(=O)N[C@@H](Cc1c[nH]c2ccccc12)C(=O)N[C@@H](CCC(N)=O)C(=O)N1CC[C@H]1C(=O)N[C@@H](Cc1ccc(O)cc1)C(N)=O [FTWEESNAYYWQJY-NH2] (H-FTWEESNAYYWQ[Aze]Y-NH2) | < 0.5 |
| CC(C)C[C@H](NC(=O)[C@@H]1CCCN1C(=O)[C@H](CC(C)C)NC(=O)[C@H](C)NC(=O)[C@H](Cc1ccc(O)cc1)NC(=O)[C@@H]1CCN1C(=O)[C@H](CCC(N)=O)NC(=O)[C@H](Cc1c[nH]c2ccccc12)NC(=O)[C@H](Cc1ccc(O)cc1)NC(=O)[C@H](Cc1ccc(O)cc1)NC(=O)[C@H](C)NC(=O)[C@H](CC(N)=O)NC(=O)[C@H](CO)NC(=O)[C@H](CCC(=O)O)NC(=O)[C@H](CCC(=O)O)NC(=O)[C@H](Cc1c[nH]c2ccccc12)NC(=O)[C@@H](NC(=O)[C@@H](N)Cc1ccccc1)[C@@H](C)O)C(=O)O [FTWEESNAYYWQJYALPL] (H-FTWEESNAYYWQ[Aze]YALPL-OH) | < 0.5 |
| FEWTPGYWQPYALPL [FEWTPGYWQPYALPL] | < 0.5 |
| FTWEESNAYYWQPY-NH2 [FTWEESNAYYWQPY-NH2] | < 0.5 |
| HIDNTAWYENFLLTYTP [HIDNTAWYENFLLTYTP] | < 0.5 |
| QIDNTAWYERFLLQYNA [QIDNTAWYERFLLQYNA] | < 0.5 |
| TYTYDNTAWYERFLMSY [TYTYDNTAWYERFLMSY] | < 0.5 |

Same assay, conditions: inhibition of 125I-IL-1α binding to IL-1RtI; soluble peptide unless marked *

| Compound | IC50 [µM] |
| --- | --- |
| C[C@@H](O)[C@H](NC(=O)[C@H](Cc1c[nH]c2ccccc12)NC(=O)[C@H](CCC(=O)O)NC(=O)[C@@H](N)Cc1ccccc1)C(=O)N1CCC[C@@H]1C(=O)NCC(=O)N[C@@H](Cc1ccc(O)cc1)C(=O)N[C@@H](Cc1c[nH]c2ccccc12)C(=O)N[C@@H](CCC(N)=O)C(=O)N1CC[C@H]1C(=O)N[C@@H](Cc1ccc(O)cc1)C(N)=O [FEWTpGYWQJY--NH2] (H-FEWT[dP]GYWQ[Aze]Y-NH2) | ≤ 0.5 |
| CC(C)[C@H](NC(=O)[C@H](Cc1c[nH]c2ccccc12)NC(=O)[C@H](CCC(=O)O)NC(=O)[C@@H](N)Cc1ccccc1)C(=O)N1CCC[C@H]1C(=O)NCC(=O)N[C@@H](Cc1ccc(O)cc1)C(=O)N[C@@H](Cc1ccc(O)cc1)C(=O)N[C@@H](CCC(N)=O)C(=O)N1CC[C@H]1C(=O)N[C@@H](Cc1ccc(O)cc1)C(N)=O [FEWVPGYYQJY--NH2] (H-FEWVPGYYQ[Aze]Y-NH2) | ≤ 0.5 |
| C[C@@H](O)[C@H](NC(=O)[C@H](Cc1c[nH]c2ccccc12)NC(=O)[C@H](CCC(=O)O)NC(=O)[C@@H](N)Cc1ccc(O)cc1)C(=O)N1CCC[C@H]1C(=O)NCC(=O)N[C@@H](Cc1ccc(O)cc1)C(=O)N[C@@H](Cc1ccc(O)cc1)C(=O)N[C@@H](CCC(N)=O)C(=O)N1CC[C@H]1C(=O)N[C@@H](Cc1ccc(O)cc1)C(N)=O [YEWTPGYYQJY--NH2] (H-YEWTPGYYQ[Aze]Y-NH2) | ≤ 0.5 |
| AHLFWQPYSVQR [AHLFWQPYSVQR] | ≤ 100 |
| AHTWWQPYALPL [AHTWWQ PYALPL] | ≤ 100 |
| ARFWLQPYALPL [ARFWLQ PYALPL] | ≤ 100 |
| ASEWWQPYALPL [ASEWWQ PYALPL] | ≤ 100 |
| AWVQPYATPLDE [AWVQPYATPLDE] | ≤ 100 |
| DNSSWYDSFLL [DNSSWYDSFLL] | ≤ 100 |
| DNTAWYENFLL [DNTAWYENFLL] | ≤ 100 |
| DNTAWYESFLA [DNTAWYESFLA] | ≤ 100 |
| DSYWWQPYALPL [DSYWWQ PYALPL] | ≤ 100 |
| DWFQPYSIQSDE [DWFQPYSIQSDE] | ≤ 100 |
| DYVWEQPYALPL [DYVWEQ PYALPL] | ≤ 100 |
| DYVWQQPYALPL [DYVWQQ PYALPL] | ≤ 100 |
| EGWWVQPYALPL [EGWWVQ PYALPL] | ≤ 100 |
| EIMFWQPYALPL [EIMFWQ PYALPL] | ≤ 100 |
| ENTYSPNWADSMYWQPYALPL [ENTYSPNWADSM YWQPYALPL] | ≤ 0.5 |
| ESFWVQPYALPL [ESFWVQ PYALPL] | > 100 |
| EWTPGYWQPY-NH2 [EWTPGYWQPY--NH2] | ≤ 100 |
| EWYQPYALGWAR [EWYQPYALGWAR] | ≤ 100 |
| FEWTPGYWQPY-NH2 [FEWTPGYWQPY--NH2] | ≤ 0.5 |
| FEWTPGYWQPYALPL [FEWTPGYWQPYALPL] | ≤ 0.5 |

| Compound | IC50 [µM] |
| --- | --- |
| FIEWFQPYALPL [FIEWFQ PYALPL] | ≤ 100 |
| FYEWWQPYALPL [FYEWWQ PYALPL] | ≤ 100 |
| GVVWYQPYALPL [GVVWYQ PYALPL] | > 100 |
| GWEQPYARGLAG [GWEQPYARGLAG] | ≤ 100 |
| GWTQPYSQQGEV [GWTQPYSQQGEV] | ≤ 100 |
| GWWQPYARGL [GWWQPYARGL] | ≤ 100 |
| GWYQPYALGF [GWYQPYALGF] | ≤ 100 |
| GWYQPYVDGWR [GWYQPYVDGWR] | ≤ 100 |
| HWGHVYWQPYSVQDDLG [HWGH VYWQPYSVQ DDLG] | ≤ 100 |
| IWYQPYAMPL [IWYQPYAMPL] | ≤ 100 |
| LFEQPYAKALGL [LFEQPYAKALGL] | ≤ 100 |
| MWYQPYSSQPAE [MWYQPYSSQPAE] | ≤ 100 |
| NMVYWQPYSIQT [Peptide 3H7, NMVYWQPYSIQT] | ≤ 100 |
| NSYFWQPYALPL [NSYFWQ PYALPL] | ≤ 100 |
| PWIQPYARGFG [PWIQPYARGFG] | ≤ 100 |
| QRIWWQPYALPL [QRIWWQ PYALPL] | ≤ 100 |
| RFDYWQPYSDQT [RFDYWQPYSDQT] | ≤ 100 |
| RFMYWQPYSVQR [RFMYWQPYSVQR] | ≤ 100 |
| RGDYWQPYSVQS [3H9, 11, RGDYWQPYSVQS] | ≤ 100 |
| RLVYWQPYSVQT [Peptide 3H2, RLVYWQPYSVQT] | ≤ 100 |
| RPLYWQPYSVQV [RPLYWQPYSVQV] | ≤ 100 |
| RSLYWQPYALPL [RSLYWQ PYALPL] | ≤ 100 |
| RSQYYQPYALPL [RSQYYQ PYALPL] | ≤ 100 |

| Compound | IC50 [µM] |
| --- | --- |
| RWEQPYVKDGWS [RWEQPYVKDGWS] | ≤ 100 |
| RWWQPYATPL [RWWQPYATPL] | ≤ 100 |
| SDIWYQPYALPL [SDIWYQ PYALPL] | ≤ 100 |
| SHLYWQPYSVQ [Peptide 2H2, SHLYWQPYSVQ] | ≤ 100 |
| SRIWCQPYALPL [SRIWCQ PYALPL] | ≤ 100 |
| SRVWFQPYSLQS [3H1, 6, 12, SRVWFQPYSLQS] | ≤ 100 |
| SVGEDHNFWTSEYWQPYALPL [SVGEDHNFWTSE YWQPYALPL] | ≤ 0.5 |
| SWHSVYWQPYSVQSVPE [SWHS VYWQPYSVQ SVPE] | ≤ 100 |
| SWTDYGYWQPYALPISGL [SWTDYG YWQPYA LPISGL] | ≤ 0.5 |
| SYDWEQPYALPL [SYDWEQ PYALPL] | ≤ 100 |
| TIIWEQPYALPL [TIIWEQ PYALPL] | ≤ 100 |
| TLIYWQPYSVQI [TLIYWQPYSVQI] | ≤ 100 |
| TLVYWQPYSLQT [Peptide H3, TLVYWQPYSLQT] | ≤ 100 |
| VHVYWQPYSVQT [Peptide 3H5, VHVYWQPYSVQT] | ≤ 100 |
| VIEWWQPYALPL [VIEWWQ PYALPL] | ≤ 100 |
| VWYWEQPYALPL [VWYWEQ PYALPL] | ≤ 100 |
| VYWQPYSVQ [VYWQPYSVQ] | ≤ 100 |
| WETWYQPYALPL [WETWYQ PYALPL] | ≤ 100 |
| WGEWLQPYALPL [WGEWLQ PYALPL] | ≤ 100 |
| WGNWWQPYSVHR [WGNWWQPYSVHR] | > 100 |
| WLAWEQPYALPL [WLAWEQ PYALPL] | ≤ 100 |
